From patent publication US20240316047A1, “INHIBITORS OF RNA HELICASE DHX9 AND USES THEREOF” (ACCENT THERAPEUTICS, INC., priority 2022, published 2024) come the findings set out here.

The structures appear in SMILES notation. Where two headings read alike, the source gives them in different places.

The subject of experiment [1] is circBRIP1 in HCT116 cells. In words: DHX9 circBRIP1 cellular target engagement TaqMan multiplex assay. The experiment is classed as cell-based. As to conditions: read-out: DHX9 Cellular Target Engagement. (In qPCR the cycle at which signal appears reflects the starting amount.)
The subject of the next experiment is LS411N cells. Nature of the experiment: DHX9 cellular proliferation assay (CellTiter-Glo), LS411N (CRC-MSI). It is filed as cell-based. To be noted: performed at Pharmaron, read-out: LS411N (CRC-MSI-H) Antiproliferative. In general terms: ATP-based viability assays read luminescence as a measure of living cells.
Experiment [2] has as its target Human recombinant DHX9 protein (Homo sapiens (Human), UniProt Q08211). Nature of the experiment: DHX9 ATPase assay (ADP-Glo). The experiment is classed as biochemical. To be noted: for IC50: read-out: DHX9 Biochemical Inflection Point. Background: ADP-Glo first removes unused ATP, then detects ADP through luciferase.
The test system of a further experiment is NCI-H747 cells. In words: DHX9 cellular proliferation assay (CellTiter-Glo), NCI-H747 (CRC-MSS). It is filed as cell-based. As to conditions: read-out: H747 (CRC-MSS) Antiproliferative.
For experiment [3], the system named is circBRIP1 in HCT116 cells. Nature of the experiment: DHX9 circBRIP1 cellular target engagement SYBR Green assay. The experiment is classed as cell-based.
The mark [4] stands for this setting: Homo sapiens, HCT-116, Taqman assay (*).
Where [5] appears, read: Homo sapiens, NCI-H747, performed at Pharmaron.
The mark [6] stands for this setting: values marked +, read-out: DHX9 Cellular Target Engagement EC50.
The mark [7] stands for this setting: Homo sapiens, HCT-116, values marked +, read-out: DHX9 Cellular Target Engagement EC50.
Setting [8] is: Homo sapiens, HCT-116, SyBr assay (^+), read-out: DHX9 Cellular Target Engagement.

Sequence of Human recombinant DHX9 protein (Q08211 whole entry): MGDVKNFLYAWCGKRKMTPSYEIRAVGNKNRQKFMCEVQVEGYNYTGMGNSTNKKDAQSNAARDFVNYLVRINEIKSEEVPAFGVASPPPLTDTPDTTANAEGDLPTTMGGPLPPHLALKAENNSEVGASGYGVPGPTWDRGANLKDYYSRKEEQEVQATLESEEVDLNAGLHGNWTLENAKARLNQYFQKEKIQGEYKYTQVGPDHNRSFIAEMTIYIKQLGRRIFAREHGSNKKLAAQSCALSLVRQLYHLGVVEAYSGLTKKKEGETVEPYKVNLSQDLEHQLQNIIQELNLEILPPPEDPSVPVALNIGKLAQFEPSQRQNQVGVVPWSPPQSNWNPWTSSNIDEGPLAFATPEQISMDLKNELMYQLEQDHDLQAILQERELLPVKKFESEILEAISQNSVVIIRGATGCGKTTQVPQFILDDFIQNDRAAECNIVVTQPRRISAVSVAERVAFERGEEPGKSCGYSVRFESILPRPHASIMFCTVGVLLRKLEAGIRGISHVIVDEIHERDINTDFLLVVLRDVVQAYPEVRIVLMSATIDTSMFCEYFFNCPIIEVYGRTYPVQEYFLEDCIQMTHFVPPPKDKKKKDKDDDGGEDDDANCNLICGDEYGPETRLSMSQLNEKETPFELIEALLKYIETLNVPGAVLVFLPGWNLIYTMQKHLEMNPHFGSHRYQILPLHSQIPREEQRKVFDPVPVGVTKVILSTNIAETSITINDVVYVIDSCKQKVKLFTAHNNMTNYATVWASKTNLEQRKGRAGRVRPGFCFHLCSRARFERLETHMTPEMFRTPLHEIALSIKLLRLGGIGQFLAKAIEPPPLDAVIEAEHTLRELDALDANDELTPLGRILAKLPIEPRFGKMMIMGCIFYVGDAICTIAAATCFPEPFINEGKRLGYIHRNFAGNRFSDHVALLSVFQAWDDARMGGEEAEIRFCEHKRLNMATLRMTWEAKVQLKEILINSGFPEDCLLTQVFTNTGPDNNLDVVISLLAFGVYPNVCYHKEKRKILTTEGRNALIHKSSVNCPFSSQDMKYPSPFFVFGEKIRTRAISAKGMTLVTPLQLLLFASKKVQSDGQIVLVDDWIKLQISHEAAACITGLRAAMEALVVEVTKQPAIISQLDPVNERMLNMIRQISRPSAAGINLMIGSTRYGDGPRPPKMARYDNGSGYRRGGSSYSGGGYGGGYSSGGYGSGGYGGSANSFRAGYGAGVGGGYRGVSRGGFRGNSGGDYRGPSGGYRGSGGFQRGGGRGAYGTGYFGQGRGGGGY

As for `Cc1sc(C(=O)Nc2cc(Cl)cc(NS(C)(=O)=O)c2)cc1-c1ncccc1OC(C)c1cncc(F)c1` (single isomer, unassigned) [Example 631], in experiment [1] (setting [4]), the EC50 was 59.3 nM. Moreover, the IC50 stood at 156 nM in the experiment with LS411N cells (Homo sapiens, LS-411N); 31.2 nM in experiment [2]; 4880 nM in the experiment with NCI-H747 cells (setting [5]). Also, the “DHX9 Biochemical Max Inhibition” value in experiment [2] turned out to be 64.4.
As for `CS(=O)(=O)Nc1cc(Cl)cc(NC(=O)c2cnn(-c3ncccc3OCc3cc(F)cc(F)c3)c2)c1` [Example 187], in experiment [2], the “DHX9 Biochemical Max Inhibition” value worked out at 82.4% and the IC50 was 3.2 nM. In experiment [3] (setting [6]), the EC50 stood at 50.4 nM.
For the compound `CS(=O)(=O)Nc1cc(Cl)cc(NC(=O)c2cnn(-c3ncccc3OCc3cccc(Br)c3)c2)c1` [Example 231], in experiment [2], the “DHX9 Biochemical Max Inhibition” value turned out to be 66.3% and the IC50 was 49.1 nM. In addition, the EC50 in experiment [3] (setting [7]) was 203 nM.
In the case of `CCc1sc(C(=O)Nc2cc(Cl)cc(NS(C)(=O)=O)c2)cc1-c1ccccn1` [Example 232], in experiment [2], the “DHX9 Biochemical Max Inhibition” value is 77.5% and the IC50 turned out to be 20.2 nM. Besides, the EC50 in experiment [3] (setting [7]) came to 61 nM.
Turning to `CS(=O)(=O)Nc1cc(Cl)cc(NC(=O)c2cnn(-c3ncccc3OCc3cc(F)cc(F)c3)c2)c1` [Example 256], in experiment [2], the “DHX9 Biochemical Max Inhibition” value is 70.1% and the IC50 stood at 403 nM. Further, in experiment [3] (setting [6]), the EC50 is 2030 nM.
Turning to `Cc1cc(C(=O)Nc2cc(Cl)cc(NS(C)(=O)=O)c2)cn1-c1ncc(N2CCC(F)(F)C2)cc1F` [Example 408], in experiment [1] (setting [4]), the EC50 was found to be 67.1 nM. The IC50 in the experiment on LS411N cells (Homo sapiens, LS-411N) came to 215 nM; in experiment [2], 41.6 nM; with NCI-H747 cells (setting [5]), 8160 nM. Also, the “DHX9 Biochemical Max Inhibition” value in experiment [2] is given as 63.
Turning to `CS(=O)(=O)Nc1cc(Cl)cc(NC(=O)c2cnn(-c3c(F)cc(F)cc3OCc3cnco3)c2)c1` [Example 429], in experiment [2], the “DHX9 Biochemical Max Inhibition” value was found to be 59.6 and the IC50 was found to be 255 nM. Further, the EC50 in experiment [3] (setting [8]) is 1180 nM.
In the same order, the values of `CS(=O)(=O)Nc1cc(F)cc(NC(=O)c2cnn(-c3ccccc3OCc3ccccc3)c2)c1` [Example 430] are 74.9, 142 nM and 1170 nM.
With `Cc1sc(C(=O)Nc2cc(Cl)cc(NS(C)(=O)=O)c2)cc1-c1ncc(OC(C)C)cc1F` [Example 455], the EC50 in experiment [1] (setting [4]) amounted to 57.6 nM. The IC50 in the experiment with LS411N cells (Homo sapiens, LS-411N) is 88.6 nM; in experiment [2], 34.2 nM; in the experiment on NCI-H747 cells (setting [5]) it was 6780 nM. The “DHX9 Biochemical Max Inhibition” value in experiment [2] was 67.3.
Take `Cc1sc(C(=O)Nc2cc(Cl)cc(NS(C)(=O)=O)c2)cc1-c1ncc(N2CC(C(F)(F)F)C2)cc1F` [Example 460, N-(3-chloro-5-(methylsulfonamido)phenyl)-4-(3-fluoro-5-(3-(trifluoromethyl)azetidin-1-yl)pyridin-2-yl)-5-methylthiophene-2-carboxamide]: the EC50 in experiment [1] (Taqman assay (*)) amounted to 58.6 nM. Further, the IC50 in the experiment on LS411N cells was 221 nM. In experiment [2], the “DHX9 Biochemical Max Inhibition” value came to 60.9 and the IC50 is 131 nM.
As for `Cc1sc(C(=O)Nc2cc(Cl)cc(NS(C)(=O)=O)c2)cc1-c1ncc(N2CC(C(F)(F)F)C2)cc1F` [Example 477], the EC50 in experiment [1] (Taqman assay (*)) turned out to be 24.2 nM. The results for the IC50 (with LS411N cells; in experiment [2]; in the experiment on NCI-H747 cells (performed at Pharmaron)) were 80.2 nM, 46.8 nM and 2520 nM, respectively. For the same compound, in experiment [2], the “DHX9 Biochemical Max Inhibition” value is recorded as 68.
On to `CCS(=O)(=O)Nc1cc(Cl)cc(NC(=O)c2cc(-c3ncc(N4CC(F)(F)C4)cc3F)n(C)c2)c1` [Example 517], for which, in experiment [1] (setting [4]), the EC50 was determined as 16.8 nM. In addition, the IC50 stood at 135 nM in the experiment with LS411N cells (Homo sapiens, LS-411N); 23.7 nM in experiment [2]; 2220 nM in the experiment with NCI-H747 cells (setting [5]). Moreover, in experiment [2], the “DHX9 Biochemical Max Inhibition” value amounted to 54.1.
For `Cc1sc(C(=O)Nc2cc(Cl)cc(NS(C)(=O)=O)c2)cc1-c1ncccc1OC(C)c1cncc(F)c1` (stereo not shown) [Example 630], the “DHX9 Biochemical Max Inhibition” value in experiment [2] stood at 67. Moreover, the figures for the IC50 (in experiment [2]; in the experiment on NCI-H747 cells (setting [5])) were 22.9 nM and greater than 10000 nM, respectively.
As to `Cc1cc(C(=O)Nc2cc(Cl)cc(NS(C)(=O)=O)c2)cn1-c1ccc(N(C)C2CCOC2)cn1` (stereo not shown) [Example 674], the “DHX9 Biochemical Max Inhibition” value in experiment [2] came out at 66.5. Also, the IC50 in experiment [2] is 3.9 nM; with NCI-H747 cells (setting [5]) it was greater than 10000 nM.
For the compound `Cc1cc(C(=O)Nc2cc(Cl)cc(NS(C)(=O)=O)c2)cn1-c1ccc(N(C)C2CCOC2)cn1` (stereo not shown) [Example 675], the IC50 with LS411N cells is 121 nM; in experiment [2], 4.1 nM; in the experiment on NCI-H747 cells (performed at Pharmaron), greater than 10000 nM. For the same compound, the “DHX9 Biochemical Max Inhibition” value in experiment [2] is reported as 71.2. Moreover, the EC50 in experiment [3] (SyBr assay (^+), read-out: DHX9 Cellular Target Engagement) amounted to 23.2 nM.
